Molecular target: T1, p300 (Homo sapiens, UniProt Q09472)
T1 construct: gene EP300; hexahistidine tagged full length p300
Experiment: filter binding KAT assay with HeLa core histones; enzyme inhibition kinetics
Format: biochemical

T1 sequence (Q09472 2-2414): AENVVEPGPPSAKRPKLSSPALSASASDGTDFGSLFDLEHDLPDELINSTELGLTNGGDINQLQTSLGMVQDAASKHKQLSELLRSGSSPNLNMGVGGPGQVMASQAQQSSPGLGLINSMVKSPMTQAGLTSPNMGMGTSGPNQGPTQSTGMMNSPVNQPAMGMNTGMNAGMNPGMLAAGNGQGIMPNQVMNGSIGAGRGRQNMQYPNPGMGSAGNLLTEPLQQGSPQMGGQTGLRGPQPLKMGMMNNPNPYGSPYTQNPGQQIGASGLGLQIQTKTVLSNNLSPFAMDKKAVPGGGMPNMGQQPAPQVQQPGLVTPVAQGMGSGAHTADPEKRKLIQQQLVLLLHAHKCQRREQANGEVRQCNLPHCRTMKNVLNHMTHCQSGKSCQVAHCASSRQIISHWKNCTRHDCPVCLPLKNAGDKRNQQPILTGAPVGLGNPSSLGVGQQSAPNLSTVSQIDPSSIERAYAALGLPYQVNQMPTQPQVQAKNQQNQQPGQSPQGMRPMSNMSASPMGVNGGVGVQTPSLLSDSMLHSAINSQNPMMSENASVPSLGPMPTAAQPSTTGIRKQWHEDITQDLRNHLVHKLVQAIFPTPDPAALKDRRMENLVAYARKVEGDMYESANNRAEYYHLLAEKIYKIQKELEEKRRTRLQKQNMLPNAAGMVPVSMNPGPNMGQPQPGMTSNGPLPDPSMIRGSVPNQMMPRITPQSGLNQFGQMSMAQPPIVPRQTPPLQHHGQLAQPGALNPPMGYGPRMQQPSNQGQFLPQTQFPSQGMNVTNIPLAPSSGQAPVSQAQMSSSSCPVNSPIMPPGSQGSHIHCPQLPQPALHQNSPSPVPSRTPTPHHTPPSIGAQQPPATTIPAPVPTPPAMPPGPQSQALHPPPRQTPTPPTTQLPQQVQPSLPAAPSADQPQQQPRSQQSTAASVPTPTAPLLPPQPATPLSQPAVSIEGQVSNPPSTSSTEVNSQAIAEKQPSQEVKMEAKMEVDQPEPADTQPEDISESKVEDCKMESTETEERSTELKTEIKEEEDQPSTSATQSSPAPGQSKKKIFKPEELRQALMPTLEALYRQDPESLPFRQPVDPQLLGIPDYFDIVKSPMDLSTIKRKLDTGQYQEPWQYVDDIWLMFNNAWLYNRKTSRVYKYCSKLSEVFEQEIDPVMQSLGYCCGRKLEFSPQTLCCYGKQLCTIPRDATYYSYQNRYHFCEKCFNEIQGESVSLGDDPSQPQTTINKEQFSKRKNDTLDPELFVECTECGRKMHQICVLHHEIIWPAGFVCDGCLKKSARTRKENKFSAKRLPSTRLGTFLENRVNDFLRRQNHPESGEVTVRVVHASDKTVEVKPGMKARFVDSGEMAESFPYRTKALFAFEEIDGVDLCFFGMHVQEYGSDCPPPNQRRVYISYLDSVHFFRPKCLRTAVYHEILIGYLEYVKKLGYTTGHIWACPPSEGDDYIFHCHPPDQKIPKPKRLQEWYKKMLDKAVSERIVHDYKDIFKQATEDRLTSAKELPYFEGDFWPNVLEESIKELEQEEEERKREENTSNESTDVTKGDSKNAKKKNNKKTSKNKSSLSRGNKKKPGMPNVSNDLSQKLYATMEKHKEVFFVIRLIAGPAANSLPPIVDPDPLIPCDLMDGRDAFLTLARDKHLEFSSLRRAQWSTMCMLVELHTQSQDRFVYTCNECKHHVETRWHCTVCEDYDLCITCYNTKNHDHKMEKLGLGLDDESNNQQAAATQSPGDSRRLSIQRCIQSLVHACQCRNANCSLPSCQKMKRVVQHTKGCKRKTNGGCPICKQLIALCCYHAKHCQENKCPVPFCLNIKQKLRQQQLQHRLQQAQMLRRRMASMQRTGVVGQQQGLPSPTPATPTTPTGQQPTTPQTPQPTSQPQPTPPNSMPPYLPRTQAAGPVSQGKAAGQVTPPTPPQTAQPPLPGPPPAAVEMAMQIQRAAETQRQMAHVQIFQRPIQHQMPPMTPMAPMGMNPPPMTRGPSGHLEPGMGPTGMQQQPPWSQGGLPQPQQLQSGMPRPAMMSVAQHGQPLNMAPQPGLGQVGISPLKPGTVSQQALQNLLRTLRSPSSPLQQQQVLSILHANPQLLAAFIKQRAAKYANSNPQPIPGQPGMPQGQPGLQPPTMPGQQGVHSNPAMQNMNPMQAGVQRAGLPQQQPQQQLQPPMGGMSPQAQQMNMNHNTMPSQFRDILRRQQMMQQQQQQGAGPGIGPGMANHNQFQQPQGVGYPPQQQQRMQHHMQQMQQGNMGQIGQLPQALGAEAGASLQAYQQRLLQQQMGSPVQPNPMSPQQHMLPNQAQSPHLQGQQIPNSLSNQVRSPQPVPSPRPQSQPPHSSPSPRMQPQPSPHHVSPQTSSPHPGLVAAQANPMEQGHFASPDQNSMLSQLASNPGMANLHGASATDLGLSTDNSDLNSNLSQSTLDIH

- IC50: 7 µM
SMILES: O=c1cc(-c2ccc(O)c(O)c2)oc2cc(O)cc(O)c12 [luteolin]

From paper PMC4791268, “Inhibition of p300 lysine acetyltransferase activity by luteolin reduces tumor growth in head and neck squamous cell carcinoma (HNSCC) xenograft mouse model” (Oncotarget, 2015)
